From PubChem BioAssay (NCI)
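Tested at 5 concentrations; 48 h exposure; 96-well plates; endpoints linearly interpolated, else capped at highest concentration. TGI denotes the concentration required for complete inhibition of growth.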 Where a SMILES comes first, the peptide text is derived from it. The star is where a group is joined. Boc = CC(C)(C)OC(=O)*

Tests used:
Experiment in all cases: DTP human tumour cell line panel, 48 h
OVCAR-3 ovarian = test system: OVCAR-3 ovarian
K-562 leukemia = test system: K-562 leukemia
LOX IMVI melanoma = test system: LOX IMVI melanoma
T-47D breast = test system: T-47D breast
MOLT-4 leukemia = test system: MOLT-4 leukemia
SK-MEL-28 melanoma = test system: SK-MEL-28 melanoma
MCF7 breast = test system: MCF7 breast
MDA-N = test system: MDA-N
A549 NSCLC = test system: A549 NSCLC
SNB-19 CNS = test system: SNB-19 CNS
HCC-2998 colon = test system: HCC-2998 colon
UACC-257 melanoma = test system: UACC-257 melanoma
CAKI-1 renal = test system: CAKI-1 renal
HCT-116 colon = test system: HCT-116 colon
TK-10 renal = test system: TK-10 renal
786-0 renal = test system: 786-0 renal
SR leukemia = test system: SR leukemia
NCI-H522 lung = test system: NCI-H522 lung
SW-620 colon = test system: SW-620 colon
HT29 colon = test system: HT29 colon
NCI-H460 lung = test system: NCI-H460 lung
SNB-75 CNS = test system: SNB-75 CNS
ACHN renal = test system: ACHN renal
NCI-H23 lung = test system: NCI-H23 lung
HCT-15 colon = test system: HCT-15 colon
U251 CNS = test system: U251 CNS
IGROV1 ovarian = test system: IGROV1 ovarian
NCI-H226 lung = test system: NCI-H226 lung
CCRF-CEM leukemia = test system: CCRF-CEM leukemia
RPMI-8226 leukemia = test system: RPMI-8226 leukemia
BT-549 breast = test system: BT-549 breast
SN12C renal = test system: SN12C renal
HL-60(TB) leukemia = test system: HL-60(TB) leukemia
UACC-62 melanoma = test system: UACC-62 melanoma
DU-145 prostate = test system: DU-145 prostate
SK-MEL-2 melanoma = test system: SK-MEL-2 melanoma
MDA-MB-231 breast = test system: MDA-MB-231 breast
OVCAR-5 ovarian = test system: OVCAR-5 ovarian
M14 melanoma = test system: M14 melanoma
OVCAR-8 ovarian = test system: OVCAR-8 ovarian
SK-MEL-5 melanoma = test system: SK-MEL-5 melanoma
MDA-MB-435 = test system: MDA-MB-435
PC-3 prostate = test system: PC-3 prostate
HOP-62 NSCLC = test system: HOP-62 NSCLC
OVCAR-4 ovarian = test system: OVCAR-4 ovarian
SF-268 CNS = test system: SF-268 CNS
UO-31 renal = test system: UO-31 renal
MALME-3M melanoma = test system: MALME-3M melanoma
NCI/ADR-RES ovarian = test system: NCI/ADR-RES ovarian
HS 578T breast = test system: HS 578T breast
KM12 colon = test system: KM12 colon
RXF 393 renal = test system: RXF 393 renal
COLO 205 colon = test system: COLO 205 colon
SF-295 CNS = test system: SF-295 CNS
SK-OV-3 ovarian = test system: SK-OV-3 ovarian
EKVX NSCLC = test system: EKVX NSCLC
SF-539 CNS = test system: SF-539 CNS
A498 renal = test system: A498 renal
HOP-92 NSCLC = test system: HOP-92 NSCLC

## COC(=O)C(Cc1c[nH]c2ccccc12)NC(=O)C(Cc1c[nH]c2ccccc12)NC(=O)C(Cc1c[nH]c2ccccc12)NC(=O)C(Cc1c[nH]c2ccccc12)NC(=O)C(Cc1c[nH]c2ccccc12)NC(=O)OC(C)(C)C (centres undefined) (Boc-WWWWW-OMe; configuration not given here)
OVCAR-3 ovarian
  TGI: > 100 µM
K-562 leukemia
  TGI: > 100 µM
LOX IMVI melanoma
  TGI: > 100 µM
T-47D breast
  TGI: > 100 µM
MOLT-4 leukemia
  TGI: > 100 µM
SK-MEL-28 melanoma
  TGI: > 100 µM
MCF7 breast
  TGI: > 100 µM
MDA-N
  TGI: > 100 µM
A549 NSCLC
  TGI: > 100 µM
SNB-19 CNS
  TGI: > 100 µM
HCC-2998 colon
  TGI: > 100 µM
UACC-257 melanoma
  TGI: > 100 µM
CAKI-1 renal
  TGI: > 100 µM
HCT-116 colon
  TGI: > 100 µM
TK-10 renal
  TGI: > 100 µM
786-0 renal
  TGI: > 100 µM
SR leukemia
  TGI: > 100 µM
NCI-H522 lung
  TGI: > 100 µM
SW-620 colon
  TGI: > 100 µM
HT29 colon
  TGI: > 100 µM
NCI-H460 lung
  TGI: > 100 µM
SNB-75 CNS
  TGI: > 100 µM
ACHN renal
  TGI: > 100 µM
NCI-H23 lung
  TGI: > 100 µM
HCT-15 colon
  TGI: > 100 µM
U251 CNS
  TGI: > 100 µM
IGROV1 ovarian
  TGI: > 100 µM
NCI-H226 lung
  TGI: > 100 µM
CCRF-CEM leukemia
  TGI: > 100 µM
RPMI-8226 leukemia
  TGI: > 100 µM
BT-549 breast
  TGI: > 100 µM
SN12C renal
  TGI: > 100 µM
HL-60(TB) leukemia
  TGI: 81.6 µM
UACC-62 melanoma
  TGI: > 100 µM
DU-145 prostate
  TGI: > 100 µM
SK-MEL-2 melanoma
  TGI: > 100 µM
MDA-MB-231 breast
  TGI: > 100 µM
OVCAR-5 ovarian
  TGI: > 100 µM
M14 melanoma
  TGI: > 100 µM
OVCAR-8 ovarian
  TGI: > 100 µM
SK-MEL-5 melanoma
  TGI: 56.5 µM
MDA-MB-435
  TGI: > 100 µM
PC-3 prostate
  TGI: > 100 µM
HOP-62 NSCLC
  TGI: > 100 µM
OVCAR-4 ovarian
  TGI: > 100 µM
SF-268 CNS
  TGI: > 100 µM
UO-31 renal
  TGI: > 100 µM
MALME-3M melanoma
  TGI: > 100 µM

## O=C1NC(=O)C2=C1CCC2O (centres undefined)
OVCAR-3 ovarian
  TGI: > 100 µM
K-562 leukemia
  TGI: > 100 µM
LOX IMVI melanoma
  TGI: > 100 µM
T-47D breast
  TGI: > 100 µM
NCI/ADR-RES ovarian
  TGI: > 100 µM
HS 578T breast
  TGI: > 100 µM
MOLT-4 leukemia
  TGI: > 100 µM
SK-MEL-28 melanoma
  TGI: > 100 µM
MCF7 breast
  TGI: > 100 µM
MDA-N
  TGI: > 100 µM
KM12 colon
  TGI: > 100 µM
A549 NSCLC
  TGI: > 100 µM
SNB-19 CNS
  TGI: > 100 µM
HCC-2998 colon
  TGI: > 100 µM
UACC-257 melanoma
  TGI: > 100 µM
CAKI-1 renal
  TGI: > 100 µM
RXF 393 renal
  TGI: > 100 µM
HCT-116 colon
  TGI: > 100 µM
COLO 205 colon
  TGI: > 100 µM
TK-10 renal
  TGI: > 100 µM
786-0 renal
  TGI: > 100 µM
SR leukemia
  TGI: > 100 µM
SW-620 colon
  TGI: > 100 µM
HT29 colon
  TGI: > 100 µM
NCI-H460 lung
  TGI: > 100 µM
SNB-75 CNS
  TGI: > 100 µM
SF-295 CNS
  TGI: > 100 µM
ACHN renal
  TGI: > 100 µM
NCI-H23 lung
  TGI: > 100 µM
HCT-15 colon
  TGI: > 100 µM
U251 CNS
  TGI: > 100 µM
IGROV1 ovarian
  TGI: > 100 µM
NCI-H226 lung
  TGI: > 100 µM
CCRF-CEM leukemia
  TGI: > 100 µM
RPMI-8226 leukemia
  TGI: > 100 µM
SN12C renal
  TGI: > 100 µM
HL-60(TB) leukemia
  TGI: > 100 µM
UACC-62 melanoma
  TGI: > 100 µM
DU-145 prostate
  TGI: > 100 µM
SK-OV-3 ovarian
  TGI: > 100 µM
SK-MEL-2 melanoma
  TGI: > 100 µM
EKVX NSCLC
  TGI: > 100 µM
MDA-MB-231 breast
  TGI: > 100 µM
SF-539 CNS
  TGI: > 100 µM
A498 renal
  TGI: > 100 µM
OVCAR-5 ovarian
  TGI: > 100 µM
M14 melanoma
  TGI: > 100 µM
OVCAR-8 ovarian
  TGI: > 100 µM
MDA-MB-435
  TGI: > 100 µM
PC-3 prostate
  TGI: > 100 µM
HOP-62 NSCLC
  TGI: > 100 µM
OVCAR-4 ovarian
  TGI: > 100 µM
SF-268 CNS
  TGI: > 100 µM
UO-31 renal
  TGI: > 100 µM
MALME-3M melanoma
  TGI: > 100 µM
HOP-92 NSCLC
  TGI: > 100 µM
